Laboratory results as given in patent publication US20030032639A1, “Composition and method for reducing adverse interactions between phenothiazine derivatives and plasma using surfactants and amino acids” (Wyeth, priority 2001, published 2003).

Assays:
[1] = after intramuscular injection; cited from earlier work
[2] = cited from earlier work
[3] = promethazine hydrochloride preparation mixed with plasma in vitro, relative amount of precipitate formed; format: physicochemical; conditions: laboratory studies, ratio not stated
Text: Without being bound by any particular theory, it is believed that this precipitate formation could be related to the venous thrombosis found at the injection site, as well as the cause of other local adverse reactions involving promethazine injection. […] With a composition according to one or more of the embodiments set forth herein, it is expected that a promethazine solution given by the routes of i.v. and i.m. (intramuscular) injection would have fewer incidences of irritation and other adverse reactions at the site of injection.

## CC(CN1c2ccccc2Sc2ccccc21)N(C)C.Cl (racemic) [promethazine hydrochloride, 10H-Phenothiazine-10-ethanamine, N,N, α-trimethyl-, monohydrochloride, (±)]
[1]
  plasma creatine kinase levels (indication of muscle irritation): raise plasma creatine kinase levels
[2]; clinical case reports
  adverse reactions at the local area of injection: irritation and other serious adverse reactions at the local area of injection, particularly gangrene at the extremity of the injection site
[2]; in vivo, iv
  venous thrombosis at the injection site: some incidents of venous thrombosis at the injection site
[3]
  precipitate formation when solution is mixed with plasma: precipitates form immediately
